Assay results reported in patent publication US20240293344A1, “Unsaturated Hydroxamic Acid Derivatives and Their Use for the Treatment and Prevention of an Ammonia-Associated Disease or Disorder” (Versantis AG, priority 2021, published 2024).

How the values were obtained:
[1] = tested on: N-Nitrosodiethylamine induced liver disease in rats; assay: In vivo efficacy in N-nitrosodiethylamine (DEN) induced liver disease in rats, blood ammonia; parameters: species or system rat; details: 30 mg/kg suspension, gavage twice a day from day 3, n=10
Experimental: Efficacy of 2-octynoHA was assessed in male Sprague Dawley rats (Beijing Vital River Laboratory Animal Technology Co., Ltd, China) in a model of acute liver disease. The liver damage was induced by reoccurring intraperitoneal injections of N-nitrosodiethylamine (DEN) 60 mg/kg on days 1, 3, 5, and 7.
Four groups of rats were included. The first control group was treated with a solution of HPβCD 270 mg/kg (n=10). The second group was treated with a suspension of rifaximin 30 mg/kg (n=10). The third group was treated with a suspension of rifaximin 60 mg/kg (n=10). The fourth group was treated with 15 mg/kg of 2-octynoHA dissolved in HPβCD solution (1:1 molar ratio of 2-octynoHA to HPβCD) (n=10). All groups received the treatment via gavage twice a day from day 3 to day 8. Blood samples were collected sublingually on days 0, 6 and 8. Blood ammonia level was measured in collected samples using PocketChem™ (Arkray, Japan).

Caco-2 cells [2] = assay: Cytotoxicity in Caco-2 cells (CCK-8); details: 10 mM, 24 h
Experimental: (§1) The compounds used were 2-octynoHA, OHA (Tokyo Chemical Industry Co., Ltd.; Japan) and AHA (Sigma-Aldrich, St. Louis, MO) The human colorectal adenocarcinoma cell line Caco-2 was obtained from American Type Culture Collection. The cells were cultured in complete medium containing DMEM (Dulbecco's modified Eagle's medium) high glucose, GlutaMax™, pyruvate (Thermo Fisher Scientific, Waltham, MA) supplemented with 10% fetal bovine serum (Thermo Fisher Scientific, Waltham, MA), 1% penicillin-streptomycin (Thermo Fisher Scientific, Waltham, MA) and 15 mM HEPES (Thermo Fisher Scientific, Waltham, MA). The cells were incubated at 37° C. in a humidified atmosphere with 5% CO2. Caco-2 cells were used in the experiments from passage 50 to 60 and were tested negative for mycoplasma.
(§2) The cytotoxicity of HAs was assessed using Cell Counting Kit-8 (CCK-8, Sigma-Aldrich, St. Louis, MO), a colorimetric assay based on tetrazolium salt WST-8 which is reduced by dehydrogenases in cells to an orange-colored formazan. The absorbance of formazan at 450 nm is directly proportional to the number of living cells.
(§3) In order to test cytotoxicity of HAs, Caco-2 cells were seeded in a 96-well plate at a density of 5×10^3 cell/well and grown for 1 day. Then, cells were treated with an increasing range of inhibitors' concentrations and incubated for another 24 h at 37° C., 5% CO2. […] After incubation, cells were washed with phosphate buffered saline (Thermo Fisher Scientific, Waltham, MA), treated with DMEM without phenol red (Thermo Fisher Scientific, Waltham, MA) containing CCK-8 reagent and incubated for another 2 h at 37° C. in a humidified atmosphere with 5% CO2. The absorbance of medium at 450 nm was measured using Tecan Infinite M200 PRO plate reader. Caco-2 cell viability was calculated as a percentage of the medium control.

[3] = tested on: S. typhimurium strains (TA98, TA100, TA1535, TA1537); assay: Ames test (Ames MPF Penta 1), S. typhimurium strains
Source text: A commercial microplate format test kit (Ames MPF™ Penta 1, Xenometrix, Switzerland) was used for this experiment. The most commonly used strains in the Ames tests, S. typhimurium with point mutations in the histidine operon and E. coli with mutations in the tryptophan operon were utilized as the model systems. The mutagenicity of the three hydroxamic acids was investigated in four S. typhimurium strains (TA98, TA100, TA1535, TA1537) and in the mixture of two E. coli strains (wp2 [pKM101] and wp2 uvrA) with and without metabolic activation (S9 fraction) according to the manufacturer's protocol.
Bacteria were exposed to 6 concentrations of the test compounds, solvent control (DMSO) and positive control substances (concentrations listed in Tables I-II below) for 90 min in the medium containing enough histidine for S. typhimurium or tryptophan for E. coli to support cell growth. After that, the cultures media were diluted with pH indicator solution lacking histidine or tryptophan and aliquoted into 48 wells of a 384-well plate. Within 48 hours, media containing cells that reverted to amino acid prototrophy turned yellow as bacteria metabolism reduced the pH of the media. The number of yellow wells containing revertant colonies was counted for each dose of the test compounds and compared to the solvent control.

bacterial urease = assay: Rat caecum content assay (urease inhibitory activity, ammonia production from urea); type: cell-based, bacteria of rat caecum content; details: for IC50: rat caecum content with urea, 30 min at 37° C., pH 6.8, read-out: IC50, bacterial urease inhibitory activity
Experimental: To evaluate the inhibitory activity of HAs, the inventors first established an in vitro assay using rat caecum content.
The use of caecum content samples for the initial screening of urease inhibitors allowed to rapidly identify stable and membrane permeable inhibitors that cover a broad spectrum of bacterial ureases present in the gastrointestinal tract.
According to the herein established protocol, rat caecum content provided by the ETH Phenomics center was diluted in 200 mM potassium phosphate monobasic buffer pH 6.8 and centrifuged at 100×g to remove large particles. The supernatant with dispersed bacteria was collected, mixed with urea and then incubated with an increasing range of inhibitor concentrations for 30 min at 37° C. with constant shaking. In this setup initial concentrations of bacteria and urea were adjusted to the values that lead to the production of ammonia at a final concentration of approximately 1000 μM. Bacterial urease converts urea to ammonia, which was quantified by an enzymatic assay (Ammonia assay, Randox Laboratories, UK).
The established assay was then used to evaluate the potency of commercially available HAs as well as synthesized HAs of the present disclosure. As most of the tested HAs have low aqueous solubility, cyclodextrins were used to prepare water-soluble formulations of the compounds. In this study, a stock solution of acetohydroxamic acid (AHA) was prepared in DMSO, and stock solutions of octanohydroxamic acid (OHA) and 2-octynohydroxamic acid (2-octynoHA) were prepared by dissolving them in aqueous solutions of 2-hydroxypropyl-p-cyclodextrin (HPβCD) in 1:2 and 1:4 molar ratios, respectively. The obtained mixtures were sonicated and heated at 37° C. until fully dissolved.
Besides 2-octynoHA, the urease inhibitory activity of other unsaturated alkylated HAs consisting of 8 carbons was assessed. These included 2-octenohydroxamic acid (2-octenoHA), 3-octenohydroxamic acid (3-octenoHA), 3-octynohydroxamic acid (3-octynoHA) and 7-octynohydroxamic acid (7-octynoHA). Prior to assessing potency in the rat caecum content assay, stock solutions of 2-octenoHA and 3-octenoHA were prepared using HPβCD solution (1:4 molar ratio of HA to HPβCD), stock solutions of 3-octynoHA and 7-octynoHA were prepared using mixture of 10% DMSO and HPβCD solution. The 7-octynoHA presented a lower potency than unsaturated alkylated HAs having a double/triple bond at positions 2 or 3.

[4] = tested on: mixture of E. coli strains (wp2 [pKM101] and wp2 uvrA); assay: Ames test (Ames MPF Penta 1), E. coli strain mixture; type: cell-based; details: with or without metabolic activation (S9)
Source text: A commercial microplate format test kit (Ames MPF™ Penta 1, Xenometrix, Switzerland) was used for this experiment. […] The mutagenicity of the three hydroxamic acids was investigated in four S. typhimurium strains (TA98, TA100, TA1535, TA1537) and in the mixture of two E. coli strains (wp2 [pKM101] and wp2 uvrA) with and without metabolic activation (S9 fraction) according to the manufacturer's protocol.

Caco-2 cells [5] = details: human, 24 h
Experimental: as §1, §2, §3

SMILES: CO[C@H]1/C=C/O[C@@]2(C)Oc3c(C)c(O)c4c(O)c(c5c(nc6cc(C)ccn65)c4c3C2=O)NC(=O)/C(C)=C\C=C\[C@H](C)[C@H](O)[C@@H](C)[C@@H](O)[C@@H](C)[C@H](OC(C)=O)[C@@H]1C [rifaximin, reference compound]
- blood ammonia level on day 6 [1]: 44 ± 22.4 µM

SMILES: CCCCCCCC(=O)NO [OHA, N-hydroxyoctanamide, reference compound]
- Caco-2 cell viability (percentage of the medium control) (Caco-2 cells [2]): no live cells were observed
- mutagenicity (reverse mutations) ([3]; TA98, TA100, TA1535, TA1537, with or without metabolic activation (S9)): not mutagenic
- IC50 (bacterial urease): 0.23 mM
- mutagenicity (reverse mutations) [4]: not mutagenic

SMILES: OO [hydrogen peroxide, reference compound]
- Caco-2 cell viability (percentage of the medium control) (Caco-2 cells [2]): 1.79±6%

SMILES: CC(=O)NO [AHA, N-hydroxyacetamide]
- concentration up to which no cytotoxicity was detected (Caco-2 cells [5]): up to 10 mM
- mutagenicity (reverse mutations) ([3]; TA98, TA100 and TA1537 strains at 5 and 10 mM): mutagenic potential was detected
- IC50 (bacterial urease): 7.3 mM

SMILES: C#CCCCCCC(=O)NO [7-octynoHA, 7-octynohydroxamic acid]
- potency compared with unsaturated alkylated HAs having a double/triple bond at positions 2 or 3 (bacterial urease; rat caecum content assay, FIG. 6): lower potency
